Test results reported in US6887873B2, “Triazine derivatives and their application as antitelomerase agents” (Aventis Pharma S.A., priority 2001, dated 2005).

Assays:
[1] = test system: human telomerease (HL60 cell extract); assay: Antitelomerease activity: extension of oligonucleotide TS followed by PCR amplification, with HL60 extract; type: biochemical; conditions: read-out: TRAP IC50
Outline: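 HL60 CHAPS-lysate extract extends TS primer (15 min, 30 °C) with compound at 10, 1, 0.1 and 0.01 µM, followed by 30-cycle PCR with TS and CXext. Products resolved on 12% acrylamide and quantified; % inhibition versus enzyme control and blank, IC50 read from semilog plot.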

[2] = test system: G-quadruplex of oligonucleotide GGGTTAGGGTTAGGGTTAGGG (3.5 repeats of the human telomereic motif); assay: G-quadruplex stabilizing activity, fluorescence Tm (FAM+DABCYL oligonucleotide); type: binding
Outline: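 FAM/DABCYL-labelled telomeric oligonucleotide (0.2 μM strand) in 10 mM sodium cacodylate pH 7.6 with 0.1 M LiCl (or NaCl) was annealed, then incubated ≥1 h at 20 °C with compound at 1 μM final. Samples were heated 20→80 °C, with excitation at 470 nm and emission at 515/588 nm. Tm is the 515 nm emission midpoint.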

| SMILES | IC50 [1] | G4 delta Tm [2] |
| --- | --- | --- |
| Cc1cc(N)c2cc(Nc3nc(Nc4ccc5nc(C)cc(N)c5c4)nc(N4CCN(C(=O)c5ccco5)CC4)n3)ccc2n1 [Example 68] | 300 nM | 8 °C |
| COc1ccc(CSc2nc(Nc3ccc4nc(C)cc(N)c4c3)nc(Nc3ccc4nc(C)cc(N)c4c3)n2)cc1 [Example 124] | 900 nM | 3 °C |
| Cc1cc(N(C)C)c2cc(Nc3nc(Nc4ccc5nc(C)cc(N(C)C)c5c4)nc(C4CCN(C)CC4)n3)ccc2n1 [Example 19, 2,4-bis(4-dimethylamino-2-methylquinolin-6-yl)amino-6-(1-methylpiperidin-4-yl)-[1,3,5]triazine] | 530 nM | 3.5 °C |
| Cc1cc(N)c2cc(Nc3nc(Nc4ccc5nc(C)cc(N)c5c4)nc(Sc4ncccn4)n3)ccc2n1 [Example 126] | 670 nM | 19 °C |
| Cc1cc(N(C)C)c2cc(Nc3nc(NCC[N+](C)(C)C)nc(Nc4ccc5nc(C)cc(N(C)C)c5c4)n3)ccc2n1 [Example 142] | 1000 nM | 9.5 °C |
| CCN(CCNc1nc(Nc2ccc3nc(C)cc(N(C)C)c3c2)nc(Nc2ccc3nc(C)cc(N(C)C)c3c2)n1)c1cccc(C)c1 [Example 28] | 900 nM | 10.6 °C |
| Cc1cc(N)c2cc(Nc3nc(Nc4ccc5nc(C)cc(N)c5c4)nc(NC4CCN(Cc5ccccc5)C4)n3)ccc2n1 (stereo not shown) [Example 41] | 360 nM | 19 °C |
| Cc1cc(N(C)C)c2cc(Nc3nc(NCCN4CCN(Cc5ccccc5)CC4)nc(Nc4ccc5nc(C)cc(N(C)C)c5c4)n3)ccc2n1 [Example 140] | 1000 nM | 5.5 °C |
| Cc1cc(N(C)C)c2cc(Nc3nc(Nc4ccc5nc(C)cc(N(C)C)c5c4)nc(N4CCCN(C)CC4)n3)ccc2n1 [Example 135, 2,4-bis(4-dimethylamino-2-methylquinolin-6-yl)amino-6-(1-methylhomopiperazin-4-yl)-[1,3,5]triazine] | 400 nM | 20 °C |
| Cc1cc(N)c2cc(Nc3nc(Nc4ccc5nc(C)cc(N)c5c4)nc(N4CCCC4c4cccnc4)n3)ccc2n1 (stereo not shown) [Example 86] | 200 nM | 6 °C |
| Cc1cc(N)c2cc(Nc3nc(Nc4ccc5nc(C)cc(N)c5c4)nc(N(Cc4ccccc4)C4CN5CCC4CC5)n3)ccc2n1 (stereo not shown) [Example 92] | 430 nM | 3.5 °C |
| Cc1cc(N)c2cc(Nc3nc(Nc4ccc5nc(C)cc(N)c5c4)nc(Sc4ccccc4Cl)n3)ccc2n1 [Example 118] | 1400 nM | 3.5 °C |
| Cc1cc(N)c2cc(Nc3nc(Nc4ccc5nc(C)cc(N)c5c4)nc(Sc4ccc5ccccc5n4)n3)ccc2n1 [Example 128, 2,4-bis(4-amino-2-methylquinolin-6-yl)amino-6-(quinolin-2-yl)thio-[1,3,5]triazine] | 390 nM | 15 °C |
| Cc1cc(N)c2cc(Nc3nc(Nc4ccc5nc(C)cc(N)c5c4)nc(Sc4ccccn4)n3)ccc2n1 [Example 120] | 380 nM | 11.5 °C |
| Cc1cc(N(C)C)c2cc(Nc3nc(Nc4ccc5nc(C)cc(N(C)C)c5c4)nc(N4CCN(C5CCCC5)CC4)n3)ccc2n1 [Example 143] | 400 nM | 13 °C |
| Cc1cc(N(C)C)c2cc(Nc3nc(Nc4ccc5nc(C)cc(N(C)C)c5c4)nc(N4CCN(CCCN(C)C)CC4)n3)ccc2n1 [Example 136, 2,4-bis(4-dimethylamino-2-methylquinolin-6-yl)amino-6-[1-(3-dimethylaminopropyl)piperazin-4-yl]-[1,3,5]triazine] | 120 nM | 20.5 °C |
| Cc1cc(N)c2cc(Nc3nc(Nc4ccc5nc(C)cc(N)c5c4)nc(N4CCN(C5CCCC5)CC4)n3)ccc2n1 [Example 43] | 180 nM | 18 °C |
| Cc1cc(N)c2cc(Nc3nc(Nc4ccc5nc(C)cc(N)c5c4)nc(NC4CN5CCC4CC5)n3)ccc2n1 (stereo not shown) [Example 17, 2,4-bis(4-amino-2-methylquinolin-6-yl)amino-6-(quinuclidin-3-yl)amino-[1,3,5]triazine] | 100 nM | 17.1 °C |
| Cc1cc(N)c2cc(Nc3nc(Nc4ccc5nc(C)cc(N)c5c4)nc(Oc4ccccc4Cl)n3)ccc2n1 [Example 103] | 280 nM | 7 °C |
| Cc1cc(N(C)C)c2cc(Nc3nc(Nc4ccc5nc(C)cc(N(C)C)c5c4)nc(N4CCCN(CCCN5CCCC5)CC4)n3)ccc2n1 [Example 139] | 600 nM | 18.5 °C |
| CCN(CCN(C)C)c1nc(Nc2ccc3nc(C)cc(N(C)C)c3c2)nc(Nc2ccc3nc(C)cc(N(C)C)c3c2)n1 [Example 146] | 600 nM | 6 °C |

| SMILES | IC50 [1] | G4 delta Tm [2] |
| --- | --- | --- |
| Cc1cc(N(C)C)c2cc(Nc3nc(NCCCN(C)C)nc(Nc4ccc5nc(C)cc(N(C)C)c5c4)n3)ccc2n1 [Example 1, 2,4-bis(4-dimethylamino-2-methylquinolin-6-yl)amino-6-(3-dimethylaminopropyl)amino-[1,3,5]triazine] | 550 nM | 11.3 °C |
| Cc1cc(N)c2cc(Nc3nc(Nc4ccc(N5CCNCC5)cc4)nc(Nc4ccc5nc(C)cc(N)c5c4)n3)ccc2n1 [Example 15] | 190 nM | 2.7 °C |
| CC(=O)NCCNc1nc(Nc2ccc3nc(C)cc(N(C)C)c3c2)nc(Nc2ccc3nc(C)cc(N(C)C)c3c2)n1 [Example 150] | 2500 nM | 6.5 °C |
| Cc1cc(N)c2cc(Nc3nc(NCc4ccc([N+](C)(C)C)cc4)nc(Nc4ccc5nc(C)cc(N)c5c4)n3)ccc2n1 [Example 60] | 3000 nM | 6 °C |
| CC1=NCCN1c1nc(Nc2ccc3nc(C)cc(N(C)C)c3c2)nc(Nc2ccc3nc(C)cc(N(C)C)c3c2)n1 [Example 148] | 1500 nM | 12 °C |
| Cc1cc(N(C)C)c2cc(Nc3nc(Nc4ccc5nc(C)cc(N(C)C)c5c4)nc(N4CCN(C)CC4)n3)ccc2n1 [Example 20, 2,4-bis(4-dimethylamino-2-methylquinolin-6-yl)amino-6-(4-methylpiperazin-1-yl)-[1,3,5]triazine] | 440 nM | 6.4 °C |
| Cc1cc(N(C)C)c2cc(Nc3nc(Nc4ccc5nc(C)cc(N(C)C)c5c4)nc(N4CCN(CCOCCO)CC4)n3)ccc2n1 [Example 141, 2,4-bis(4-dimethylamino-2-methylquinolin-6-yl)amino-6-{[1-2-(2-hydroxyethyl)oxyethyl]piperazin-4-yl}-[1,3,5]triazine] | 900 nM | 7 °C |
| Cc1cc(N(C)C)c2cc(Nc3nc(Nc4ccc5nc(C)cc(N(C)C)c5c4)nc(N4CCN(c5ccncc5)CC4)n3)ccc2n1 [Example 144, 2,4-bis(4-dimethylamino-2-methylquinolin-6-yl)amino-6-[1-(pyridin-4-yl)piperazin-4-yl]-[1,3,5]triazine] | 400 nM | 22.5 °C |
| Cc1cc(N)c2cc(Nc3nc(Nc4ccc5nc(C)cc(N)c5c4)nc(Nc4ccc5nc(C)cc(N)c5c4)n3)ccc2n1 [Example 2, 2,4,6-tris(4-amino-2-methylquinolin-6-yl)amino-[1,3,5]triazine] | 60 nM | 18 °C |
| Cc1cc(N(C)C)c2cc(Nc3nc(Nc4ccc5nc(C)cc(N(C)C)c5c4)nc(N4CCC[C@H]4CN4CCCC4)n3)ccc2n1 [Example 149, 2,4-bis(4-dimethylamino-2-methylquinolin-6-yl)amino-6-[2(S)-(pyrrolidin-1-yl)methylpyrrolidin-1-yl]-[1,3,5]triazine] | 2500 nM | 12.5 °C |
| Cc1cc(N)c2cc(Nc3nc(Nc4ccc5nc(C)cc(N)c5c4)nc(N4CCN(C5CCCCCCC5)CC4)n3)ccc2n1 [Example 77] | 480 nM | 12.5 °C |
| Cc1cc(N)c2cc(Nc3nc(Nc4ccc5nc(C)cc(N)c5c4)nc(OCCN(C)Cc4ccccc4)n3)ccc2n1 [Example 105] | 240 nM | 12 °C |
| Cc1cc(N)c2cc(Nc3nc(Nc4ccc5nc(C)cc(N)c5c4)nc(NC4CCN(Cc5ccccc5)CC4)n3)ccc2n1 [Example 93] | 370 nM | 8 °C |
| CCCN(CCC)CCN1CCN(c2nc(Nc3ccc4nc(C)cc(N(C)C)c4c3)nc(Nc3ccc4nc(C)cc(N(C)C)c4c3)n2)CC1 [Example 137, 2,4-bis(4-dimethylamino-2-methylquinolin-6-yl)amino-6-[1-(2-dipropylaminoethyl)piperazin-4-yl]-[1,3,5]triazine] | 1000 nM | 16 °C |
| COc1cccc(Oc2nc(Nc3ccc4nc(C)cc(N)c4c3)nc(Nc3ccc4nc(C)cc(N)c4c3)n2)c1 [Example 104] | 1200 nM | 4.5 °C |
| Cc1cc(N(C)C)c2cc(Nc3nc(Nc4ccc5nc(C)cc(N(C)C)c5c4)nc(N(C)C4CCN(C)CC4)n3)ccc2n1 [Example 138, 2,4-bis(4-dimethylamino-2-methylquinolin-6-yl)amino-6-[N-(1-methylpiperidin-4-yl)-N-methylamino]-[1,3,5]triazine] | 500 nM | 16 °C |
| Cc1cc(N(C)C)c2cc(Nc3nc(Nc4ccncc4)nc(Nc4ccc5nc(C)cc(N(C)C)c5c4)n3)ccc2n1 [Example 18] | 1200 nM | 2.4 °C |
| Cc1cc(C)nc(Sc2nc(Nc3ccc4nc(C)cc(N)c4c3)nc(Nc3ccc4nc(C)cc(N)c4c3)n2)n1 [Example 127] | 840 nM | 14 °C |
| Cc1cc(N)c2cc(Nc3nc(Nc4ccc5nc(C)cc(N(C)C)c5c4)nc(Nc4ccccc4Cl)n3)ccc2n1 [Example 3] | 2100 nM | 5.5 °C |
| Cc1cc(N(C)C)c2cc(Nc3nc(NCc4ccncc4)nc(Nc4ccc5nc(C)cc(N(C)C)c5c4)n3)ccc2n1 [Example 145] | 1000 nM | 5 °C |
